Measurements from patent publication US20260130395A1, “Water Dispersible Botanical Compositions” (Aquila Black Limited, priority 2021, published 2026).

Test: Stability of cannabinoid compounds and Vitamin E components in Beverage 1 (AB White) by LCMSMS
Assay type: physicochemical
Conditions: for Stability of Plant-Derived Cannabinoid Compounds in AB White, 8° C.: AB White stored at 8° C.; for Stability of Plant-Derived Cannabinoid Compounds in AB White, 21-25° C.: AB White stored at 21-25° C.

With CCCCCc1cc(O)c2c(c1)OC1(C)CCC3C1C2C3(C)C (stereo not drawn) [CBL, cannabicyclol] the “Stability of Plant-Derived Cannabinoid Compounds in AB White, 8° C.” value (shortened to “Stability … 8° C.”) (29 days) was 0.547 µg/mL, the “Stability … 8° C.” value (30 days) was 0.544 µg/mL and the “Stability … 8° C.” value (60 days) was 0.543 µg/mL. For the same compound, the “Stability … 8° C.” value (90 days) was 0.527 µg/mL, the “Stability … 8° C.” value (120 days) was 0.534 µg/mL and the “Stability … 8° C.” value (150 days) was 0.540 µg/mL. The “Stability … 8° C.” value (180 days) was 0.542 µg/mL, the “Stability … 8° C.” value (210 days) was 0.534 µg/mL and the “Stability … 8° C.” value (240 days) was 0.535 µg/mL. The “Stability … 8° C.” value (270 days) was 0.539 µg/mL, the “Stability … 8° C.” value (300 days) was 0.526 µg/mL and the “Stability … 8° C.” value (330 days) was 0.543 µg/mL. The “Stability … 8° C.” value (360 days) was 0.533 µg/mL, the “Stability … 8° C.” value (390 days) was 0.535 µg/mL and the “Stability … 8° C.” value (420 days) was 0.526 µg/mL. For the same compound, the “Stability … 8° C.” value (450 days) was 0.532 µg/mL, the “Stability … 8° C.” value (480 days) was 0.521 µg/mL and the “Stability … 8° C.” value (510 days) was 0.514 µg/mL. For the same compound, the “Stability … 8° C.” value (540 days) was 0.514 µg/mL, the “Stability … 8° C.” value (570 days) was 0.503 µg/mL and the “Stability of Plant-Derived Cannabinoid Compounds in AB White, 21-25° C.” value (“Stability … 21-25° C.” below) (0 days) was 0.550 µg/mL. For the same compound, the “Stability … 21-25° C.” value (1 days) was 0.539 µg/mL, the “Stability … 21-25° C.” value (2 days) was 0.540 µg/mL and the “Stability … 21-25° C.” value (3 days) was 0.543 µg/mL. The “Stability … 21-25° C.” value (5 days) was 0.530 µg/mL, the “Stability … 21-25° C.” value (8 days) was 0.542 µg/mL and the “Stability … 21-25° C.” value (9 days) was 0.535 µg/mL. The “Stability … 21-25° C.” value (10 days) was 0.546 µg/mL, the “Stability … 21-25° C.” value (11 days) was 0.552 µg/mL and the “Stability … 21-25° C.” value (12 days) was 0.529 µg/mL. The “Stability … 21-25° C.” value (15 days) was 0.548 µg/mL, the “Stability … 21-25° C.” value (16 days) was 0.537 µg/mL and the “Stability … 21-25° C.” value (17 days) was 0.554 µg/mL. For the same compound, the “Stability … 21-25° C.” value (18 days) was 0.554 µg/mL, the “Stability … 21-25° C.” value (19 days) was 0.552 µg/mL and the “Stability … 21-25° C.” value (22 days) was 0.547 µg/mL. For the same compound, the “Stability … 21-25° C.” value (23 days) was 0.530 µg/mL, the “Stability … 21-25° C.” value (24 days) was 0.546 µg/mL and the “Stability … 21-25° C.” value (25 days) was 0.532 µg/mL. The “Stability … 21-25° C.” value (26 days) was 0.549 µg/mL, the “Stability … 21-25° C.” value (29 days) was 0.552 µg/mL and the “Stability … 21-25° C.” value (30 days) was 0.543 µg/mL. For the same compound, the “Stability … 21-25° C.” value (60 days) was 0.544 µg/mL, the “Stability … 21-25° C.” value (90 days) was 0.541 µg/mL and the “Stability … 21-25° C.” value (120 days) was 0.516 µg/mL. For the same compound, the “Stability … 21-25° C.” value (150 days) was 0.517 µg/mL, the “Stability … 21-25° C.” value (180 days) was 0.527 µg/mL and the “Stability … 21-25° C.” value (210 days) was 0.514 µg/mL. For the same compound, the “Stability … 21-25° C.” value (240 days) was 0.515 µg/mL, the “Stability … 21-25° C.” value (270 days) was 0.535 µg/mL and the “Stability … 21-25° C.” value (300 days) was 0.532 µg/mL. The “Stability … 21-25° C.” value (330 days) was 0.526 µg/mL, the “Stability … 21-25° C.” value (360 days) was 0.526 µg/mL and the “Stability … 21-25° C.” value (390 days) was 0.518 µg/mL. For the same compound, the “Stability … 21-25° C.” value (420 days) was 0.523 µg/mL, the “Stability … 21-25° C.” value (450 days) was 0.521 µg/mL and the “Stability … 21-25° C.” value (480 days) was 0.510 µg/mL. For the same compound, the “Stability … 21-25° C.” value (510 days) was 0.503 µg/mL, the “Stability … 21-25° C.” value (540 days) was 0.510 µg/mL and the “Stability … 21-25° C.” value (570 days) was 0.505 µg/mL.
